# pIC50: −log10 of the molar value.
# System: Macrophage
# Assay: Inhibition of RANKL-induced bone resorption of multinucleated osteoclasts from BALB/c mouse bone marrow-derived macrophages by pit formation assay
# Assay type: functional, cell-based
row,SMILES,Activity
1,CC(C)C(NC(=O)OCc1ccccc1)C(=O)N1CCCCN1C#N (stereo unspecified),Dose-dependent effect

# Molecular target: Procathepsin L (Homo sapiens, UniProt P07711)
# Assay: Inhibition of human recombinant cathepsin L
# Sequence of Procathepsin L (P07711 whole entry): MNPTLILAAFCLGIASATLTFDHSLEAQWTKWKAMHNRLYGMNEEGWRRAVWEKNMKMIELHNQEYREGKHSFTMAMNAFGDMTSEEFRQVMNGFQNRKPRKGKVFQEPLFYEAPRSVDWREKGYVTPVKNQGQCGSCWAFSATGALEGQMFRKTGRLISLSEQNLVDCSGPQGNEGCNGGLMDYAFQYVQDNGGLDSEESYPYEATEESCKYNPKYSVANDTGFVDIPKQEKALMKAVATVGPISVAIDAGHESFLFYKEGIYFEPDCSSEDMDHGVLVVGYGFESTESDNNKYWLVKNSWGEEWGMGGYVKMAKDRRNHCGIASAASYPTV
row,SMILES,pIC50
1,CC(C)C(NC(=O)OCc1ccccc1)C(=O)N1CCCCN1C#N (stereo unspecified),6.84
2,CC(C)C(Nc1ccccc1)C(=O)N1CCCCN1C#N (stereo unspecified),6.20
3,CC(C)C(Nc1cccc(C(F)(F)F)c1)C(=O)N1CCCCN1C#N (stereo unspecified),7.32
4,Cc1cccc(NC(C(=O)N2CCCCN2C#N)C(C)C)c1 (stereo unspecified),6.45
5,CC(C)C(Nc1cccc(C#N)c1)C(=O)N1CCCCN1C#N (stereo unspecified),6.14
6,CC(C)C(NC(=O)OC(C)(C)C)C(=O)N1CCCCN1C#N (stereo unspecified),6.89
7,CC(C)C(Nc1ccc(Cl)cc1)C(=O)N1CCCCN1C#N (stereo unspecified),6.21
8,CC(C)C(Nc1cccc(Cl)c1)C(=O)N1CCCCN1C#N (stereo unspecified),6.62

# Molecular target: T1, Cathepsin K (Homo sapiens, UniProt P43235)
# T1 sequence (P43235 whole entry): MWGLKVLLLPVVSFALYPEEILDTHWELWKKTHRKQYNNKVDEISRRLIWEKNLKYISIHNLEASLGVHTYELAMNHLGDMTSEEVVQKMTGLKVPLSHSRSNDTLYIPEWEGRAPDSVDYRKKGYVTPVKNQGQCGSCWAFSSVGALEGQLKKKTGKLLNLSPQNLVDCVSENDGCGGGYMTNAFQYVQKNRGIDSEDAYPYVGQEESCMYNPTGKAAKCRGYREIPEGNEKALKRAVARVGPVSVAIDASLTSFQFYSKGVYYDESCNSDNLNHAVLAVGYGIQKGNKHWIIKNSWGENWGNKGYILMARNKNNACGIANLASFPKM
# Assay: Inhibition of human recombinant cathepsin K
row,SMILES,pIC50
1,CC(C)C(NC(=O)OCc1ccccc1)C(=O)N1CCCCN1C#N (stereo unspecified),9.00
2,CC(C)C(Nc1ccccc1)C(=O)N1CCCCN1C#N (stereo unspecified),7.60
3,CC(C)C(Nc1cccc(C(F)(F)F)c1)C(=O)N1CCCCN1C#N (stereo unspecified),7.64
4,Cc1cccc(NC(C(=O)N2CCCCN2C#N)C(C)C)c1 (stereo unspecified),8.22
5,CC(C)C(Nc1cccc(C#N)c1)C(=O)N1CCCCN1C#N (stereo unspecified),8.40
6,CC(C)C(NC(=O)OC(C)(C)C)C(=O)N1CCCCN1C#N (stereo unspecified),7.26
7,CC(C)C(Nc1ccc(Cl)cc1)C(=O)N1CCCCN1C#N (stereo unspecified),7.62
8,CC(C)C(Nc1cccc(Cl)c1)C(=O)N1CCCCN1C#N (stereo unspecified),7.96

# System: RAW264.7
# Assay: Inhibition of RANKL-induced bone resorption of multinucleated osteoclasts from mouse RAW264.7 cells by pit formation assay
# Assay type: functional, cell-based
row,SMILES,Activity
1,CC(C)C(NC(=O)OCc1ccccc1)C(=O)N1CCCCN1C#N (stereo unspecified),Dose-dependent effect

# Molecular target: Cathepsin B (Homo sapiens, UniProt P07858)
# Assay: Inhibition of human recombinant cathepsin B
row,SMILES,pIC50
1,CC(C)C(NC(=O)OCc1ccccc1)C(=O)N1CCCCN1C#N (stereo unspecified),7.96
2,CC(C)C(Nc1ccccc1)C(=O)N1CCCCN1C#N (stereo unspecified),7.28
3,CC(C)C(Nc1cccc(C(F)(F)F)c1)C(=O)N1CCCCN1C#N (stereo unspecified),7.64
4,Cc1cccc(NC(C(=O)N2CCCCN2C#N)C(C)C)c1 (stereo unspecified),7.49
5,CC(C)C(Nc1cccc(C#N)c1)C(=O)N1CCCCN1C#N (stereo unspecified),7.40
6,CC(C)C(NC(=O)OC(C)(C)C)C(=O)N1CCCCN1C#N (stereo unspecified),7.42
7,CC(C)C(Nc1ccc(Cl)cc1)C(=O)N1CCCCN1C#N (stereo unspecified),6.96
8,CC(C)C(Nc1cccc(Cl)c1)C(=O)N1CCCCN1C#N (stereo unspecified),7.49
